{"source": "patent US4518611A", "about": "“2-Furylbutyrolactone modulation of the immune system in mammals” (priority 1983, dated 1985)", "key": {"L-1210 leukemia cells": {"tested_on": "L-1210 leukemia cells", "test": "Treatment of L-1210 leukemia in BDF1 mice (T/C ratios)", "assay_type": "in vivo, mouse", "details": "20 mg/kg, seven days", "description": "Mice of the BDF1 strain are given in i.p. inoculation of 10^6 L-1210 leukemia cells on day 0. Twenty-four hours later, groups of 7 mice each are started on a nine day treatment regimen of various doses of the compounds of this invention. The experiment is continued according to the guidelines provided under the National Cancer Institute protocol for screening new anti-cancer agents and T/C ratios (median or mean survival time of treated groups over median or mean survival time of controls) are calculated. A T/C value ≥1.25 (or 125%) is considered significant anticancer activity.\n(§1) Mice of the BDF1 strain, inoculated with L-1210 leukemia cells, are treated for seven days with either 25, 50, 100, 200 or 400 mg/kg of Cpd. 1 or just buffer. The National Cancer Institute protocol for screening new anti-cancer agents is followed and T/C ratios are calculated.\nas §1, with “either 100” for “either 25, 50, 100, 200 or 400”, “Cpd. 1, 20 mg/kg of 5-flourouracil (5-FU), a known anti-cancer agent,” for “Cpd. 1”"}, "spleen lymphocytes [1]": {"tested_on": "spleen lymphocytes", "test": "Lymphocyte stimulation assay after in vivo treatment, C57BL/6 mice", "details": "4 days", "description": "(§2) The purpose of this assay is to challenge lymphocytes in microcultures with one or more polyclonal mitogens at concentrations that will induce mitogenesis within 72 hours of stimulation.\n(§3) In the mouse model, spleens are removed from different strains of mice and the spleen cells are teased free and suspended in RPMI-1640 tissue culture medium at a concentration of usually […]. These cells are dispensed at a concentration of 5.0×10^5 cells per microculture well in a 96 well flat bottom 96 well tissue culture plate. All testing of the compounds of this invention or mitogens are done in replicates of 10. The cells are then treated with PHA, Con-A, specific antigens, or buffer only. If in vitro testing is done, varying concentrations of the compounds of this invention or buffer only are added to the cells as well. After treatment with the mitogens and/or compounds of this invention, the cells are incubated for 72 hours. The response of these cells to mitogens and/or the compounds of this invention is assessed using ^14 C-thymidine labeling on the fourth day at a concentration of 0.01 μCi/well. The labeled cells are harvested using a lymphocyte harvestor and placed onto fibrous paper discs. A scintillation cocktail is added to vials containing the discs and the results are obtained using a LKB-liquid scintillation counter (Model 1216/Rackbeta II). The data is expressed as a ratio of the cpm of the mitogen stimulated group to the control (nonmitogen) treated group=lymphocyte stimulation index (LSI).\n(§4) The lymphocyte stimulation assay may be performed directly on spleen cells obtained from various strains of mice not treated with the compounds of this invention or on lymphocytes obtained from human […]. […] Alternatively, the mice may be treated in vivo with the compounds of this invention by intraperitoneal multi-dose schedules, followed by sacrifice and harvesting spleen lymphocytes. These cells are then tested for their response to polyclonal mitogens or specific antigens used to immunize the mice. In this system however, no additional compound is added to the in vitro lymphocyte stimulation assay system.\nTwo strains of mice, C57BL/6 and BDF1 are treated for seven days with i.p. administration of either 25, 50, 100, 200, or 400 mg/kg of Cpd. 1 or just buffer. This is followed on the eighth day by a lymphocyte stimulation assay.\nA comparison is made of the lymphocyte response of C57BL/6 mice treated 4 days with i.p. administration of either 50, 100, 200, 400 or 800 mg/kg of Cpd. 1, 50, 100, 200, 400 or 800 mg/kg of ascorbic acid (AA), or just buffer. This is followed on the fifth day by a lymphocyte stimulation assay.\nTwo strains of mice, C57BL/6 and BALB/c, are treated 4 days with i.p. administration of either 50, 100, 200, or 400 mg/kg of Cpd. 1, or just buffer. This is followed on the fifth day by a lymphocyte stimulation assay.\nC57BL/6 mice were treated with four daily i.p. doses of either 50, 100, 200, or 400 mg/kg of Cpd. 1 or just buffer. On the fifth day a lymphocyte stimulation assay was performed.\nMice of the C57BL/6 strain were tested with i.p. administration of either 100, 200, 400 or 600 mg/kg of Cpd. 1 or just buffer. This was followed by removal of spleens and treatment of lymphocytes therein with mitogens PHA and Con-A.\nThe compound of Example 2, Cpd. 2, was tested in vivo by using C57BL/6 mice and treating them with […] or just buffer for four consecutive days by the i.p. route. On the fifth day a lymphocyte stimulation assay was performed."}, "human lymphocytes": {"tested_on": "human lymphocytes", "test": "In vitro lymphocyte stimulation assay, human lymphocytes", "assay_type": "cell-based", "set-up": "key to Lymphocyte Stimulation Index, PHA / Lymphocyte Stimulation Index, Con-A: LSI = cpm of mitogen-stimulated group / cpm of control group", "description": "as §2, §3, §4\nLymphocytes isolated from 5 human volunteers are treated in vitro with PHA and Con-A and either 0.1, 1, 10, 50, or 100 μg/well of Cpd. 1, 0.1, 1, 10, 50, or 100 μg/well of AA, or buffer."}, "spleen lymphocytes [2]": {"tested_on": "spleen lymphocytes", "test": "In vitro lymphocyte stimulation assay, C57BL/6 spleen lymphocytes", "assay_type": "cell-based, mouse", "description": "as §2, §3, §4\nAn in vitro lymphocyte stimulation assay is performed directly on normal spleen lymphocytes removed from five normal C57BL/6 mice, using concentrations of Cpd. […] Following three days of incubation the assay is completed.\nAn in vitro lymphocyte stimulation assay was performed using spleen lymphocytes from normal C57BL/6 mice. The lymphocytes were treated with either 1, 5, 10, 50 or 100 μg/well of Cpd. 1 or buffer.\nCpd. 2 was tested using normal spleen lymphocytes from C57BL/6 mice. A lymphocyte stimulation assay was conducted using either 1, 5, 10, 50, or 100 μg/well […] or just buffer.\nSpleen cells from C57BL/6 mice were treated, in vitro, with the crystallizing reagents, succinic acid and succinimide. Since these compounds are spontaneously released from the molecular complex in solution at a molar ratio of 2 moles of Cpds. 1, 2, or 3 per mole of the crystalline reagent, these reagents were treated in the lymphocyte stimulation assay at proper molar concentrations.\nThe compound of example 3, Cpd. 3, was used to treat C57BL/6 spleen lymphocytes in vitro. The lymphocytes were treated with either 1, 5, 10, 50, or 100 μg/well of Cpd. 3 or just buffer and then a lymphocyte stimulation assay was performed."}}, "note": "“Also recorded” adds a separate entry of the source.", "data": [{"smiles": "O=c1[nH]cc(F)c(=O)[nH]1", "note": "[5-FU, 5-flourouracil, reference compound]", "values": [{"measurement": "Median Survival Time", "setting": "L-1210 leukemia cells", "value": 30}, {"measurement": "T/C", "setting": "L-1210 leukemia cells", "value": 1.50}]}, {"smiles": "O=C1O[C@H]([C@@H](O)CO)C(O)=C1O", "note": "[AA, ascorbic acid, reference compound]", "values": [{"measurement": "Lymphocyte Stimulation Index, Con-A", "setting": "spleen lymphocytes [1]; 50 mg/kg i.p.", "value": 25.5}, {"measurement": "Lymphocyte Stimulation Index, Control (no mitogen)", "setting": "spleen lymphocytes [1]; 50 mg/kg i.p.", "value": ".56"}, {"measurement": "Lymphocyte Stimulation Index, PHA", "setting": "spleen lymphocytes [1]; 50 mg/kg i.p.", "value": 17.1}, {"measurement": "Lymphocyte Stimulation Index, Con-A", "setting": "spleen lymphocytes [1]; 100 mg/kg i.p.", "value": 19.8}, {"measurement": "Lymphocyte Stimulation Index, Control (no mitogen)", "setting": "spleen lymphocytes [1]; 100 mg/kg i.p.", "value": 1.8}, {"measurement": "Lymphocyte Stimulation Index, PHA", "setting": "spleen lymphocytes [1]; 100 mg/kg i.p.", "value": 17.1}, {"measurement": "Lymphocyte Stimulation Index, Con-A", "setting": "spleen lymphocytes [1]; 200 mg/kg i.p.", "value": 21.1}, {"measurement": "Lymphocyte Stimulation Index, Control (no mitogen)", "setting": "spleen lymphocytes [1]; 200 mg/kg i.p.", "value": 1.3}, {"measurement": "Lymphocyte Stimulation Index, PHA", "setting": "spleen lymphocytes [1]; 200 mg/kg i.p.", "value": 10.0}, {"measurement": "Lymphocyte Stimulation Index, Con-A", "setting": "spleen lymphocytes [1]; 400 mg/kg i.p.", "value": 17.8}, {"measurement": "Lymphocyte Stimulation Index, Control (no mitogen)", "setting": "spleen lymphocytes [1]; 400 mg/kg i.p.", "value": 1.3}, {"measurement": "Lymphocyte Stimulation Index, PHA", "setting": "spleen lymphocytes [1]; 400 mg/kg i.p.", "value": 14.3}, {"measurement": "Lymphocyte Stimulation Index, Con-A", "setting": "spleen lymphocytes [1]; 800 mg/kg i.p.", "value": 23.9}, {"measurement": "Lymphocyte Stimulation Index, Control (no mitogen)", "setting": "spleen lymphocytes [1]; 800 mg/kg i.p.", "value": ".50"}, {"measurement": "Lymphocyte Stimulation Index, PHA", "setting": "spleen lymphocytes [1]; 800 mg/kg i.p.", "value": 12.1}, {"measurement": "effect on Con-A response (in words)", "setting": "spleen lymphocytes [1]; i.p., Con-A", "value": "a single stimulation of proliferation did occur at 50 mg/kg"}, {"measurement": "effect on PHA response (in words)", "setting": "spleen lymphocytes [1]; i.p., PHA", "value": "No statistically significant measurable effect"}, {"measurement": "Lymphocyte Stimulation Index, Con-A", "setting": "human lymphocytes; 0.1 μg/well", "value": 24.37}, {"measurement": "Lymphocyte Stimulation Index, PHA", "setting": "human lymphocytes; 0.1 μg/well", "value": 38.29}, {"measurement": "Lymphocyte Stimulation Index, Con-A", "setting": "human lymphocytes; 1.0 μg/well", "value": 24.76}, {"measurement": "Lymphocyte Stimulation Index, PHA", "setting": "human lymphocytes; 1.0 μg/well", "value": 34.69}, {"measurement": "Lymphocyte Stimulation Index, Con-A", "setting": "human lymphocytes; 10 μg/well", "value": 27.35}, {"measurement": "Lymphocyte Stimulation Index, PHA", "setting": "human lymphocytes; 10 μg/well", "value": 35.10}, {"measurement": "Lymphocyte Stimulation Index, Con-A", "setting": "human lymphocytes; 50 μg/well", "value": 23.31}, {"measurement": "Lymphocyte Stimulation Index, PHA", "setting": "human lymphocytes; 50 μg/well", "value": 35.93}, {"measurement": "Lymphocyte Stimulation Index, Con-A", "setting": "human lymphocytes; 100 μg/well", "value": 25.18}, {"measurement": "Lymphocyte Stimulation Index, PHA", "setting": "human lymphocytes; 100 μg/well", "value": 34.23}, {"measurement": "effect on lymphocyte response (in words)", "setting": "human lymphocytes; in vitro, PHA and Con-A", "value": "no significant proliferative or anti-proliferative effect"}]}, {"smiles": "CN1C(=O)CCC1=O.Cc1ccc(C2(O)C(=O)OC3C(O)COC32O)o1.Cc1ccc(C2(O)C(=O)OC3C(O)COC32O)o1", "note": "(centres unmarked) [Cpd. 3, 2-furylbutyrolactone:N-methylsuccinimide]", "values": [{"measurement": "Lymphocyte Stimulation Index, Control (no mitogen)", "setting": "spleen lymphocytes [2]; 1 μg/well", "value": ".60"}, {"measurement": "Lymphocyte Stimulation Index, Control (no mitogen)", "setting": "spleen lymphocytes [2]; 5 μg/well", "value": ".64"}, {"measurement": "Lymphocyte Stimulation Index, Control (no mitogen)", "setting": "spleen lymphocytes [2]; 10 μg/well", "value": ".47"}, {"measurement": "Lymphocyte Stimulation Index, PHA", "setting": "spleen lymphocytes [2]; 10 μg/well", "value": 24.0}, {"measurement": "Lymphocyte Stimulation Index, Control (no mitogen)", "setting": "spleen lymphocytes [2]; 50 μg/well", "value": ".27"}, {"measurement": "Lymphocyte Stimulation Index, Control (no mitogen)", "setting": "spleen lymphocytes [2]; 100 μg/well", "value": ".25"}, {"measurement": "effect on Con-A response (in words)", "setting": "spleen lymphocytes [2]; in vitro, Con-A", "value": "The 50 μg/well dose slightly stimulated the response to Con-A; also recorded: the 100 μg/well dose suppressed the response"}, {"measurement": "effect on PHA response (in words)", "setting": "spleen lymphocytes [2]; in vitro, PHA", "value": "The 10 μg/well dose of Cpd. 3 significantly stimulated the response to PHA; also recorded: the 50 and 100 μg/well doses suppressed the response"}]}, {"smiles": "O=C(O)CCC(=O)O", "note": "[Succinic Acid, succinic acid, reference compound]", "values": [{"measurement": "effect on PHA and Con-A mitogenesis (in words)", "setting": "spleen lymphocytes [2]; in vitro", "value": "a decrease in PHA and Con-A mitogenesis with increased succinic acid dosage"}]}, {"smiles": "O=C1CCC(=O)N1", "note": "[Succinimide, succinimide, reference compound]", "values": [{"measurement": "Lymphocyte Stimulation Index, Control (no mitogen)", "setting": "spleen lymphocytes [2]; 13.92 μg/well", "value": 1.4}, {"measurement": "effect on PHA and Con-A mitogenesis (in words)", "setting": "spleen lymphocytes [2]; in vitro", "value": "no significant suppressive or enhancing effect"}]}]}
